For 18 molecules, IC50 results are on record in patent US9783511B2, “Carbamate benzoxazine propionic acids and acid derivatives for modulation of RORgamma activity and the treatment of disease” (Merck Sharp & Dohme Corp., priority 2013, dated 2017).

The experiment concerns the target human RORgammaT-Ligand Binding Domain (LBD) (Homo sapiens (Human), UniProt P51449). The experiment in a line: RORγ-Ligand Binding Domain TR-FRET Assay (co-activator peptide SRC1_2 recruitment). Type of experiment: biochemical. To be noted: HIS-tagged RORγ-LBD 3 nM, biotinylated SRC1 LXXLL peptide 100 nM, incubated overnight at 4° C., 665 nm/615 nm ratio. From the text: Activation of RORgammaT activity can be measured using, e.g., a biochemical TR-FRET assay. In such an assay, interaction of cofactor-derived peptides with human RORgammaT-Ligand Binding Domain (LBD) can be measured.
To identify novel antagonists of RORgammaT, an assay was developed which employs the interaction of RORgammaT with its co-activator peptide SRC1_2. […] The RORγ-Ligand Binding Domain TR-FRET Assay was run according to the following protocol.
HIS-tagged RORγ-LBD protein was recombinantly expressed in Escherichia coli. The RORγ-LBD protein was purified by Ni^2+-affinity resin. Purified protein was then diluted in assay buffer (50 mM Tris pH 7.0, 50 mM KCl, 1 mM EDTA, 0.1 mM DTT, 100 μg/mL bovine serum albumin, delipidated) to obtain a RORγ-LBD final concentration of 3 nM.
Compounds to be tested were injected to the 384-well assay plate using Acoustic Droplet Ejection technology by Echo 550 liquid handler (Labcyte, CA).

human RORgammaT-Ligand Binding Domain (LBD), sequence (P51449 269-508): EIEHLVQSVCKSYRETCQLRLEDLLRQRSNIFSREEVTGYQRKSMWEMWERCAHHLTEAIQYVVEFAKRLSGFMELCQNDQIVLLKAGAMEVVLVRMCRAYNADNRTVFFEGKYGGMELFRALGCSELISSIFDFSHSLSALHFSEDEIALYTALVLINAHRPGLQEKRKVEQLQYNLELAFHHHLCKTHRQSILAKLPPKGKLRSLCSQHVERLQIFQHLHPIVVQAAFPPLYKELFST

In general, IC50 refers to the concentration that inhibits the measured activity by half. Take `CC(C)(OC(=O)Nc1ccc2c(c1)N(S(=O)(=O)c1cccc(C(F)(F)F)c1)C[C@H](CC(O)C(=O)O)O2)C(F)(F)F` (mixture of isomers) [Example 15, (R and S)-2-hydroxy-3-((S)-6-((((1,1,1-trifluoro-2-methylpropan-2-yl)oxy)carbonyl)amino)-4-((3-(trifluoromethyl)phenyl)sulfonyl)-3,4-dihydro-2H-benzo[b][1,4]oxazin-2-yl)propanoic acid]: the IC50 was 18.1 nM.

Consider `COc1cc(S(=O)(=O)N2C[C@H](CC(O)C(=O)O)Oc3ccc(NC(=O)OC(C)(C)C(F)(F)F)cc32)ccc1F` (mixture of isomers) [Example 18F, (R and S)-3-((S)-4-((4-fluoro-3-methoxyphenyl)sulfonyl)-6-((((1,1,1-trifluoro-2-methylpropan-2-yl)oxy)carbonyl)amino)-3,4-dihydro-2H-benzo[b][1,4]oxazin-2-yl)-2-hydroxypropanoic acid], for which the IC50 worked out at 9.39 nM.

In the case of `Cc1nn(C(F)F)cc1S(=O)(=O)N1C[C@H](C[C@@H](C)C(=O)O)Oc2ccc(NC(=O)OC(C)(C)C(F)(F)F)cc21` (single isomer, unassigned) [Example 6BG, (R or S)-3-((S)-4-((1-(difluoromethyl)-3-methyl-1H-pyrazol-4-yl)sulfonyl)-6-((((1,1,1-trifluoro-2-methylpropan-2-yl)oxy)carbonyl)amino)-3,4-dihydro-2H-benzo[b][1,4]oxazin-2-yl)-2-methylpropanoic acid], the IC50 stood at 13.3 nM.

For `CCOc1sc(C2CC2)nc1S(=O)(=O)N1C[C@H](C[C@@H](C)C(=O)O)Oc2ccc(NC(=O)OC(C)(C)C(F)(F)F)cc21` (single isomer, unassigned) [Example 6BP, (R or S)-3-((S)-4-((2-cyclopropyl-5-ethoxythiazol-4-yl)sulfonyl)-6-((((1,1,1-trifluoro-2-methylpropan-2-yl)oxy)carbonyl)amino)-3,4-dihydro-2H-benzo[b][1,4]oxazin-2-yl)-2-methylpropanoic acid], the concentration for half-maximal inhibition (IC50) turned out to be 26.6 nM.

Regarding `CCc1nc(S(=O)(=O)N2C[C@H](C[C@@H](C)C(=O)O)Oc3ccc(NC(=O)OC(C)(C)C(F)(F)F)cc32)c(OCC(F)(F)F)s1` (single isomer, unassigned) [Example 6BR, (R or S)-3-((S)-4-((2-ethyl-5-(2,2,2-trifluoroethoxy)thiazol-4-yl)sulfonyl)-6-((((1,1,1-trifluoro-2-methylpropan-2-yl)oxy)carbonyl)amino)-3,4-dihydro-2H-benzo[b][1,4]oxazin-2-yl)-2-methylpropanoic acid], the IC50 is 12.3 nM.

Take `CCOc1sc(CC)nc1S(=O)(=O)N1C[C@H](C[C@@H](C)C(=O)O)Oc2ccc(NC(=O)OC(C)(C)C(F)(F)F)cc21` (single isomer, unassigned) [Example 6Bo, (R or S)-3-((S)-4-((5-ethoxy-2-ethylthiazol-4-yl)sulfonyl)-6-((((1,1,1-trifluoro-2-methylpropan-2-yl)oxy)carbonyl)amino)-3,4-dihydro-2H-benzo[b][1,4]oxazin-2-yl)-2-methylpropanoic acid]: the IC50 turned out to be 11.9 nM.

As to `Cc1cccc(S(=O)(=O)N2C[C@H](C[C@@H](C)C(=O)O)Oc3ccc(NC(=O)OC(C)(C)C(F)(F)F)cc32)c1` (single isomer, unassigned) [Example 6CK, (S or R)-2-methyl-3-((S)-4-(m-tolylsulfonyl)-6-((((1,1,1-trifluoro-2-methylpropan-2-yl)oxy)carbonyl)amino)-3,4-dihydro-2H-benzo[b][1,4]oxazin-2-yl)propanoic acid], the half-maximal inhibitory concentration (IC50) was determined as 14.5 nM.

For the molecule `C[C@H](C[C@H]1CN(S(=O)(=O)c2cccc(OC(F)F)c2)c2cc(NC(=O)OC(C)(C)C(F)(F)F)ccc2O1)C(=O)O` (single isomer, unassigned) [Example 6CM, (S or R)-3-((S)-4-((3-(difluoromethoxy)phenyl)sulfonyl)-6-((((1,1,1-trifluoro-2-methylpropan-2-yl)oxy)carbonyl)amino)-3,4-dihydro-2H-benzo[b][1,4]oxazin-2-yl)-2-methylpropanoic acid], the IC50 was 5.25 nM.

Regarding `Cc1cccc(S(=O)(=O)N2C[C@H](C[C@H](C)C(=O)O)Oc3ccc(NC(=O)OC(C)(C)C(F)(F)F)cc32)c1` (single isomer, unassigned) [Example 6CP, (S or R)-2-methyl-3-((S)-4-(m-tolylsulfonyl)-6-((((1,1,1-trifluoro-2-methylpropan-2-yl)oxy)carbonyl)amino)-3,4-dihydro-2H-benzo[b][1,4]oxazin-2-yl)propanoic acid], the concentration for half-maximal inhibition (IC50) was found to be 11.6 nM.

As to `C[C@@H](C[C@H]1CN(S(=O)(=O)c2cccc(C3CC3)c2)c2cc(NC(=O)OC(C)(C)C(F)(F)F)ccc2O1)C(=O)O` (single isomer, unassigned) [Example 6CU, (S or R)-3-((S)-4-((3-cyclopropylphenyl)sulfonyl)-6-((((1,1,1-trifluoro-2-methylpropan-2-yl)oxy)carbonyl)amino)-3,4-dihydro-2H-benzo[b][1,4]oxazin-2-yl)-2-methylpropanoic acid], the IC50 was determined as 17.8 nM.

For `C[C@H](C[C@H]1CN(S(=O)(=O)c2cccc(C3CC3)c2)c2cc(NC(=O)OC(C)(C)C(F)(F)F)ccc2O1)C(=O)O` (single isomer, unassigned) [Example 6CW, (R or S)-3-((S)-4-((3-cyclopropylphenyl)sulfonyl)-6-((((1,1,1-trifluoro-2-methylpropan-2-yl)oxy)carbonyl)amino)-3,4-dihydro-2H-benzo[b][1,4]oxazin-2-yl)-2-methylpropanoic acid], the half-maximal inhibitory concentration (IC50) is 10.2 nM.

Turning to `C[C@H](C[C@H]1CN(S(=O)(=O)c2ccnc(C(F)(F)F)c2)c2cc(NC(=O)OC(C)(C)C(F)(F)F)ccc2O1)C(=O)O` (single isomer, unassigned) [Example 6CZ, (R or S)-2-methyl-3-((S)-6-((((1,1,1-trifluoro-2-methylpropan-2-yl)oxy)carbonyl)amino)-4-((2-(trifluoromethyl)pyridin-4-yl)sulfonyl)-3,4-dihydro-2H-benzo[b][1,4]oxazin-2-yl)propanoic acid], the IC50 was 15.3 nM.

`C[C@@H](C[C@H]1CN(S(=O)(=O)c2cccc(OC(F)F)c2)c2cc(NC(=O)OC(C)(C)C(F)(F)F)ccc2O1)C(=O)O` (single isomer, unassigned) [Example 6Co, (S or R)-3-((S)-4-((3-(difluoromethoxy)phenyl)sulfonyl)-6-((((1,1,1-trifluoro-2-methylpropan-2-yl)oxy)carbonyl)amino)-3,4-dihydro-2H-benzo[b][1,4]oxazin-2-yl)-2-methylpropanoic acid]: the IC50 is 8.38 nM.

As for `C[C@@H](C[C@H]1CN(S(=O)(=O)c2ccnc(C(F)(F)F)c2)c2cc(NC(=O)OC(C)(C)C(F)(F)F)ccc2O1)C(=O)O` (single isomer, unassigned) [Example 6DA, (R or S)-2-methyl-3-((S)-6-((((1,1,1-trifluoro-2-methylpropan-2-yl)oxy)carbonyl)amino)-4-((2-(trifluoromethyl)pyridin-4-yl)sulfonyl)-3,4-dihydro-2H-benzo[b][1,4]oxazin-2-yl)propanoic acid], the half-inhibitory concentration (IC50) amounted to 14.9 nM.

Turning to `C[C@H](C[C@H]1CN(S(=O)(=O)c2ccnc(C3CC3)c2)c2cc(NC(=O)OC(C)(C)C(F)(F)F)ccc2O1)C(=O)O` (single isomer, unassigned) [Example 6DB, (R or S)-3-((S)-4-((2-cyclopropylpyridin-4-yl)sulfonyl)-6-((((1,1,1-trifluoro-2-methylpropan-2-yl)oxy)carbonyl)amino)-3,4-dihydro-2H-benzo[b][1,4]oxazin-2-yl)-2-methylpropanoic acid], the IC50 amounted to 11.5 nM.

As for `C[C@@H](C[C@H]1CN(S(=O)(=O)c2ccnc(C3CC3)c2)c2cc(NC(=O)OC(C)(C)C(F)(F)F)ccc2O1)C(=O)O` (single isomer, unassigned) [Example 6DC, (R or S)-3-((S)-4-((2-cyclopropylpyridin-4-yl)sulfonyl)-6-((((1,1,1-trifluoro-2-methylpropan-2-yl)oxy)carbonyl)amino)-3,4-dihydro-2H-benzo[b][1,4]oxazin-2-yl)-2-methylpropanoic acid], the IC50 came to 16.2 nM.

Regarding `C[C@H](C[C@H]1CN(S(=O)(=O)c2cn(C(F)F)nc2Cl)c2cc(NC(=O)OC(C)(C)C(F)(F)F)ccc2O1)C(=O)O` (single isomer, unassigned) [Example 6DD, (R or S)-3-((S)-4-((3-chloro-1-(difluoromethyl)-1H-pyrazol-4-yl)sulfonyl)-6-((((1,1,1-trifluoro-2-methylpropan-2-yl)oxy)carbonyl)amino)-3,4-dihydro-2H-benzo[b][1,4]oxazin-2-yl)-2-methylpropanoic acid], the IC50 was determined as 23.6 nM.

With `C[C@@H](C[C@H]1CN(S(=O)(=O)c2cn(C(F)F)nc2Cl)c2cc(NC(=O)OC(C)(C)C(F)(F)F)ccc2O1)C(=O)O` (single isomer, unassigned) [Example 6DE, (R or S)-3-((S)-4-((3-chloro-1-(difluoromethyl)-1H-pyrazol-4-yl)sulfonyl)-6-((((1,1,1-trifluoro-2-methylpropan-2-yl)oxy)carbonyl)amino)-3,4-dihydro-2H-benzo[b][1,4]oxazin-2-yl)-2-methylpropanoic acid], the half-maximal inhibitory concentration (IC50) stood at 40.3 nM.
